Data: patent US12696901B2, “Pesticidally active heterocyclic derivatives with sulfur containing substituents” (SYNGENTA CROP PROTECTION AG, priority 2020, dated 2026)

Experiments:
Format in all cases: in vivo
[1] = tested on: Diabrotica balteata (Corn Root Worm); assay: Activity against Diabrotica balteata (corn root worm), corn seedlings on filter paper in cups; details: 120 h, application rate 3 ppm, L2 larva, 5 days after treatment, read-out: effect in at least one of the two categories (mortality or growth inhibition)
Description: Example B12: Activity Against Diabrotica Balteata (Corn Root Worm)
Three corn seedlings were placed on wetted filter paper in plastic cups, and 3 ml of diluted test solutions were pipetted onto them. The cups were infested with 10 L2 larva and checked for mortality and growth regulation 5 days after treatment.

[2] = tested on: Carpocapsa (Cydia) Pomonella (Codling Moth); assay: Activity against Carpocapsa (Cydia) pomonella (codling moth), sprayed diet cubes; details: 336 h, application rate 12.5 ppm, L1 larvae, 14 days after infestation, read-out: effect in at least one of the two categories (mortality or growth inhibition)
How it was run: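 Paraffin-coated diet cubes were sprayed with test solutions at 12.5 ppm, dried, and infested with one L1 larva each (10 replicates). After incubation at 26–27 °C, mortality and growth inhibition were scored 14 days after infestation.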

[3] = tested on: Myzus persicae (Green Peach Aphid); assay: Activity against Myzus persicae (green peach aphid), feeding/contact activity; details: 144 h, application rate 200 ppm, mixed ages, 6 days after infestation
Description: Example B6: Activity Against Myzus persicae (Green Peach Aphid) Feeding/Contact Activity
(§1) Sunflower leaf discs were placed onto agar in a 24-well microtiter plate and sprayed with aqueous test solutions prepared from 10,000 ppm DMSO stock solutions. After drying, the leaf discs were infested with an aphid population of mixed ages. The samples were assessed for mortality 6 days after infestation.

[4] = tested on: Frankliniella occidentalis (Western Flower Thrips); assay: Activity against Frankliniella occidentalis (western flower thrips), sprayed sunflower leaf discs; details: foliar, 168 h, application rate 200 ppm, population of mixed ages, 7 days after infestation
Description: Example B4: Activity Against Frankliniella occidentalis (Western Flower Thrips)
as §1, with “on” for “onto”, “in” for “in a”, “plates” for “plate”, “drying” for “drying,”, “a Frankliniella” for “an aphid”, “7” for “6”

[5] = tested on: Diabrotica balteata (Corn Root Worm); assay: Activity against Diabrotica balteata (corn root worm), sprayed maize sprouts on agar; details: 96 h, application rate 200 ppm, L2 larvae, 4 days after infestation, read-out: effect in at least one of the two categories (mortality or growth inhibition)
Description: Example B2: Activity Against Diabrotica balteata (Corn Root Worm)
Maize sprouts placed onto an agar layer in 24-well microtiter plates were treated with aqueous test solutions prepared from 10,000 ppm DMSO stock solutions by spraying. After drying, the plates were infested with L2 larvae (6 to 10 per well). The samples were assessed for mortality and growth inhibition in comparison to untreated samples 4 days after infestation.

[6] = tested on: Euschistus heros (Neotropical Brown Stink Bug); assay: Activity against Euschistus heros (neotropical brown stink bug), sprayed soybean leaves; details: 120 h, application rate 200 ppm, N2 nymphs, 5 days after infestation, read-out: effect in at least one of the two categories (mortality or growth inhibition)
Description: Example B3: Activity Against Euschistus heros (Neotropical Brown Stink Bug)
Soybean leaves on agar in 24-well microtiter plates were sprayed with aqueous test solutions prepared from 10,000 ppm DMSO stock solutions. After drying the leaves were infested with N2 nymphs. The samples were assessed for mortality and growth inhibition in comparison to untreated samples 5 days after infestation.

[7] = tested on: Tetranychus urticae (Two-Spotted Spider Mite); assay: Activity against Tetranychus urticae (two-spotted spider mite), sprayed bean leaf discs; details: foliar, 192 h, application rate 200 ppm, mixed population (mobile stages), 8 days after infestation
Description: Example B9: Activity Against Tetranychus urticae (Two-Spotted Spider Mite)
Bean leaf discs on agar in 24-well microtiter plates were sprayed with aqueous test solutions prepared from 10,000 ppm DMSO stock solutions. After drying the leaf discs were infested with a mite population of mixed ages. The samples were assessed for mortality on mixed population (mobile stages) 8 days after infestation.

[8] = tested on: Spodoptera littoralis (Egyptian Cotton Leaf Worm); assay: Activity against Spodoptera littoralis (Egyptian cotton leaf worm), sprayed cotton leaf discs; details: foliar, 72 h, application rate 200 ppm, L1 larvae, 3 days after infestation
How it was run: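 Leaf discs on agar were sprayed with aqueous solutions prepared from 10,000 ppm DMSO stock, dried, then infested with five L1 larvae. Mortality, anti-feeding and growth inhibition were scored against untreated discs 3 days after infestation. Control was recorded when any one category exceeded the untreated sample.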

[9] = tested on: Plutella xylostella (Diamond Back Moth); assay: Activity against Plutella xylostella (diamond back moth), treated artificial diet; details: 192 h, application rate 200 ppm, eggs, 8 days after infestation, read-out: effect in at least one of the two categories (mortality or growth inhibition)
How it was run: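 Artificial diet treated with aqueous test solutions made from 10,000 ppm DMSO stocks, dried, then infested with Plutella eggs. Mortality and growth inhibition scored against untreated samples 8 days after infestation.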

[10] = tested on: Bemisia tabaci (Cotton White Fly); assay: Activity against Bemisia tabaci (cotton white fly), sprayed cotton leaf discs; details: foliar, 144 h, application rate 200 ppm, adult white flies, 6 days after incubation
Description: Example B1: Activity Against Bemisia tabaci (Cotton White Fly)
Cotton leaf discs were placed on agar in 24-well microtiter plates and sprayed with aqueous test solutions prepared from 10,000 ppm DMSO stock solutions. After drying the leaf discs were infested with adult white flies. The samples were checked for mortality 6 days after incubation.

[11] = tested on: Chilo suppressalis (Striped Rice Stemborer); assay: Activity against Chilo suppressalis (striped rice stemborer), treated artificial diet; details: 144 h, application rate 200 ppm, L2 larvae, 6 days after infestation
How it was run: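 Artificial diet treated with aqueous test solutions made from 10,000 ppm DMSO stocks, dried, then infested with L2 larvae, 6-8 per well. Mortality, anti-feeding effect and growth inhibition scored versus untreated samples 6 days after infestation; control counted when any one category exceeds the untreated sample.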

[12] = tested on: Myzus persicae (Green Peach Aphid); assay: Activity against Myzus persicae (green peach aphid), systemic activity; details: 144 h, test rate 24 ppm, roots of pea seedlings in test solution, 6 days
Description: Example B8: Activity Against Myzus persicae (Green Peach Aphid) Systemic Activity
Roots of pea seedlings infested with an aphid population of mixed ages were placed directly into aqueous test solutions prepared from 10,000 ppm DMSO stock solutions. The samples were assessed for mortality 6 days after placing seedlings into test solutions.

CCS(=O)(=O)c1c(N2Cc3ncc(C(F)(F)F)cc3C2=O)nc2ccc(OC(F)F)cn12 [Compound P10, 6-[6-(difluoromethoxy)-3-ethylsulfonyl-imidazo[1,2-a]pyridin-2-yl]-3-(trifluoromethyl)-7H-pyrrolo[3,4-b]pyridin-5-one]
≥ 80%: percent effect (mortality or growth inhibition) at 3 ppm [1] | percent effect (mortality or growth inhibition) at 12.5 ppm [2] | mortality at 200 ppm [3] | mortality at 200 ppm [4] | percent effect (mortality or growth inhibition) at 200 ppm [5] | percent effect (mortality or growth inhibition) at 200 ppm [6] | mortality at 200 ppm [7] | percent control (mortality, anti-feedant effect or growth inhibition) at 200 ppm [8] | percent effect (mortality or growth inhibition) at 200 ppm [9] | mortality at 200 ppm [10] | percent control (mortality, anti-feedant effect or growth inhibition) at 200 ppm [11]

CCS(=O)(=O)c1c(N2Cc3ncc(C(F)(F)F)cc3C2=O)nc2cc(OC)ccn12 [Compound P13, 6-(3-ethylsulfonyl-7-methoxy-imidazo [1,2-a]pyridin-2-yl)-3-(trifluoromethyl)-7H-pyrrolo[3,4-b] pyridin-5-one]
≥ 80%: mortality at 200 ppm [3] | percent effect (mortality or growth inhibition) at 200 ppm [5] | mortality at 24 ppm [12] | percent control (mortality, anti-feedant effect or growth inhibition) at 200 ppm [8] | percent effect (mortality or growth inhibition) at 200 ppm [9]

CCS(=O)(=O)c1c(N2Cc3ccc(OC(F)(F)F)cc3C2=O)nc2ccc(C(C)(F)F)cn12 [Compound P17, 2-[6-(1,1-difluoroethyl)-3-ethylsulfonyl-imidazo[1,2-a]pyridin-2-yl]-6-(trifluoromethoxy) isoindolin-1-one]
≥ 80%: percent effect (mortality or growth inhibition) at 3 ppm [1] | percent effect (mortality or growth inhibition) at 12.5 ppm [2] | mortality at 200 ppm [3] | mortality at 200 ppm [4] | percent effect (mortality or growth inhibition) at 200 ppm [5] | percent effect (mortality or growth inhibition) at 200 ppm [6] | mortality at 200 ppm [7] | percent control (mortality, anti-feedant effect or growth inhibition) at 200 ppm [8] | percent effect (mortality or growth inhibition) at 200 ppm [9] | mortality at 200 ppm [10] | percent control (mortality, anti-feedant effect or growth inhibition) at 200 ppm [11]

CCS(=O)(=O)c1c(N2Cc3ncc(C(F)(F)F)cc3C2=O)nc2cc(C)ccn12 [Compound P23, 6-(3-ethylsulfonyl-7-methyl-imidazo[1,2-a]pyridin-2-yl)-3-(trifluoromethyl)-7H-pyrrolo[3,4-b]pyridin-5-one]
≥ 80%: mortality at 200 ppm [3] | percent effect (mortality or growth inhibition) at 200 ppm [5] | mortality at 24 ppm [12] | percent control (mortality, anti-feedant effect or growth inhibition) at 200 ppm [8] | percent effect (mortality or growth inhibition) at 200 ppm [9] | percent control (mortality, anti-feedant effect or growth inhibition) at 200 ppm [11]

CCS(=O)(=O)c1c(N2Cc3ncc(C(F)(F)F)cc3C2=O)nc2ccc(C(C)(C)C#N)cn12 [Compound P35, 2-[3-ethylsulfonyl-2-[5-oxo-3-(trifluoromethyl)-7H-pyrrolo[3,4-b]pyridin-6-yl]imidazo[1,2-a]pyridin-6-yl]-2-methyl-propanenitrile]
≥ 80%: percent effect (mortality or growth inhibition) at 3 ppm [1] | percent effect (mortality or growth inhibition) at 12.5 ppm [2] | mortality at 200 ppm [3] | mortality at 200 ppm [4] | percent effect (mortality or growth inhibition) at 200 ppm [5] | percent effect (mortality or growth inhibition) at 200 ppm [6] | mortality at 200 ppm [7] | percent control (mortality, anti-feedant effect or growth inhibition) at 200 ppm [8] | percent effect (mortality or growth inhibition) at 200 ppm [9] | mortality at 200 ppm [10] | percent control (mortality, anti-feedant effect or growth inhibition) at 200 ppm [11]

CCS(=O)(=O)c1c(N2Cc3ncc(C(F)(F)F)cc3C2=O)nc2ccc(NC(C)=O)cn12 [Compound P36, N-[3-ethylsulfonyl-2-[5-oxo-3-(trifluoromethyl)-7H-pyrrolo[3,4-b]pyridin-6-yl]imidazo[1,2-a]pyridin-6-yl]acetamide]
≥ 80%: mortality at 200 ppm [3] | percent effect (mortality or growth inhibition) at 200 ppm [5] | mortality at 24 ppm [12] | percent control (mortality, anti-feedant effect or growth inhibition) at 200 ppm [8] | percent effect (mortality or growth inhibition) at 200 ppm [9] | percent control (mortality, anti-feedant effect or growth inhibition) at 200 ppm [11]
